Test systems include TK-10 renal; HCC-2998 colon; OVCAR-4 ovarian; M14 melanoma; HCT-15 colon; BT-549 breast; NCI-H23 lung; MALME-3M melanoma; SK-MEL-5 melanoma; LOX IMVI melanoma.
Holding throughout (assay): NCI anticancer screen, dose series, 48 h

This passage reports GI50 and TGI results from PubChem BioAssay (NCI).

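Five compound concentrations were applied to cells in 96-well plates for 48 hours; endpoints were derived by simple linear interpolation of the resulting dose-response curve. Here, GI50 denotes the concentration required for 50% inhibition of growth. TGI is the concentration that stops growth completely.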

Consider `CC(C)C[C@H](NC(=O)[C@H](Cc1ccccc1)n1ccc(N2CCCCC2)cc1=O)B(O)O`, for which the GI50 with TK-10 renal was 0.375 µM; in the assay on HCC-2998 colon, 1.14 µM; with OVCAR-4 ovarian, 2.06 µM; in the assay with M14 melanoma, 0.356 µM; in the assay with HCT-15 colon, 1.61 µM; in the assay on BT-549 breast it was 0.364 µM. Moreover, the GI50 with NCI-H23 lung is 1.59 µM; with MALME-3M melanoma, 0.682 µM; with SK-MEL-5 melanoma, 0.367 µM. In addition, the TGI in the assay on TK-10 renal is 15.6 µM; with HCC-2998 colon it was 3.09 µM; with OVCAR-4 ovarian, greater than 100 µM; with M14 melanoma, 3.88 µM; in the assay with HCT-15 colon, 22.1 µM; in the assay with BT-549 breast, 4.32 µM. For the same molecule, the TGI in the assay on NCI-H23 lung was greater than 100 µM; with MALME-3M melanoma, 7.95 µM; with SK-MEL-5 melanoma it was 3.11 µM.

As for `Cn1ccnc1C(=O)/C=C/c1ccc(CC(=O)Nc2ccc(Cl)cc2)cc1`, the GI50 with TK-10 renal was 12.3 µM; in the assay on HCC-2998 colon it was 3.42 µM; in the assay on OVCAR-4 ovarian it was 2.18 µM; in the assay on LOX IMVI melanoma it was 1.07 µM; with HCT-15 colon, 0.999 µM; in the assay on BT-549 breast it was 3.53 µM. The GI50 with NCI-H23 lung was 2.04 µM; with MALME-3M melanoma, 14.2 µM; in the assay with SK-MEL-5 melanoma, 14.4 µM. Further, the TGI with TK-10 renal, in the assay on HCC-2998 colon, in the assay on OVCAR-4 ovarian, with LOX IMVI melanoma, in the assay with HCT-15 colon and with BT-549 breast was greater than 25 µM in each case. Also, the TGI with NCI-H23 lung, with MALME-3M melanoma and with SK-MEL-5 melanoma was greater than 25 µM each time.

Consider `Cc1ccc(C)c(NC(=O)C(=O)C(c2cnc3ccc([N+](=O)[O-])cc3n2)[N+](=O)[O-])c1` (stereo not drawn), for which the TGI with TK-10 renal is greater than 100 µM; in the assay on HCC-2998 colon it was greater than 100 µM; with OVCAR-4 ovarian it was 38.2 µM; in the assay on M14 melanoma, greater than 100 µM; in the assay on HCT-15 colon, greater than 100 µM; in the assay on BT-549 breast, greater than 100 µM. Moreover, the TGI in the assay on NCI-H23 lung, in the assay with MALME-3M melanoma and in the assay on SK-MEL-5 melanoma was greater than 100 µM in each case.

On to `CN(C)/[N+]([O-])=N/Oc1cc(Nc2cccc(C(=O)O)c2)c([N+](=O)[O-])cc1[N+](=O)[O-]`, for which the GI50 is greater than 100 µM in the assay with TK-10 renal; 38.5 µM with LOX IMVI melanoma; greater than 100 µM in the assay on HCT-15 colon; 72.2 µM in the assay on BT-549 breast; 69.5 µM with NCI-H23 lung; 81.4 µM with SK-MEL-5 melanoma. The TGI in the assay with TK-10 renal, with LOX IMVI melanoma, in the assay on HCT-15 colon, in the assay on BT-549 breast, in the assay with NCI-H23 lung and in the assay with SK-MEL-5 melanoma was greater than 100 µM in each case.

On to `CC(C)(C)[OH+][O-].[O-]c1ccc(Cl)cc1C=Nc1ccc(Cl)cc1[O-].[O]=[V]`, for which the GI50 was 13.8 µM in the assay with TK-10 renal; 11.2 µM in the assay on HCC-2998 colon; 5.9 µM in the assay on LOX IMVI melanoma; 13.3 µM in the assay on M14 melanoma; 21.8 µM with HCT-15 colon; 13.2 µM in the assay with BT-549 breast. The GI50 in the assay on NCI-H23 lung is 20.4 µM; in the assay on MALME-3M melanoma it was 1.81 µM; in the assay with SK-MEL-5 melanoma, 13 µM. Besides, the TGI with TK-10 renal was 73.7 µM; in the assay on HCC-2998 colon, 25.7 µM; in the assay on LOX IMVI melanoma it was 25.9 µM; with M14 melanoma, 76.2 µM; with HCT-15 colon it was greater than 100 µM; in the assay on BT-549 breast it was 28.6 µM. The TGI in the assay with NCI-H23 lung was found to be 66.9 µM; in the assay with MALME-3M melanoma, 11.9 µM; in the assay with SK-MEL-5 melanoma it was 26.3 µM.

As to `Cc1ccc(C)c(NC(=O)C(=O)C2C(=O)C3=C(CC2(C)C)Nc2ccccc2S3)c1` (stereo not drawn), the TGI in the assay with TK-10 renal, in the assay with HCC-2998 colon, in the assay with OVCAR-4 ovarian, in the assay with LOX IMVI melanoma, in the assay with M14 melanoma and with HCT-15 colon was greater than 100 µM each time. Further, the TGI with BT-549 breast, in the assay on NCI-H23 lung and in the assay with SK-MEL-5 melanoma was greater than 100 µM in each case.

Turning to `O=C1c2ccccc2-c2c1c1ccccc1c(=O)n2Cc1ccco1`, the TGI in the assay on TK-10 renal, with LOX IMVI melanoma, in the assay on M14 melanoma, in the assay on HCT-15 colon, in the assay on BT-549 breast and with NCI-H23 lung was greater than 100 µM each time. In addition, the TGI with MALME-3M melanoma and in the assay on SK-MEL-5 melanoma was greater than 100 µM throughout.

Consider `COc1ccc(-c2ccc(C3CC(c4ccc(O)cc4)=NN3)o2)c([N+](=O)[O-])c1` (stereo not drawn), for which the GI50 in the assay on TK-10 renal was 40.1 µM; with OVCAR-4 ovarian, 50.2 µM; in the assay with M14 melanoma, 36.1 µM; in the assay on HCT-15 colon it was 35.4 µM; in the assay with BT-549 breast, 32.8 µM; with NCI-H23 lung, 42.5 µM. In addition, the GI50 in the assay on MALME-3M melanoma was 19.1 µM. Besides, the TGI is greater than 100 µM in the assay on TK-10 renal; 96.6 µM with OVCAR-4 ovarian; greater than 100 µM in the assay on M14 melanoma; greater than 100 µM in the assay on HCT-15 colon; greater than 100 µM in the assay with BT-549 breast; greater than 100 µM in the assay with NCI-H23 lung. The TGI in the assay on MALME-3M melanoma is 51.3 µM.

For the molecule `O=[N+]([O-])c1cnc(Sc2ccncn2)c([N+](=O)[O-])c1`, the GI50 with TK-10 renal is 1.74 µM; with HCC-2998 colon, 18.4 µM; in the assay with LOX IMVI melanoma, 3.1 µM; with M14 melanoma, 5.81 µM; in the assay with HCT-15 colon, 2.78 µM; in the assay on BT-549 breast it was 15.2 µM. The GI50 in the assay with NCI-H23 lung was 14.3 µM; in the assay with MALME-3M melanoma, 1.83 µM; with SK-MEL-5 melanoma it was 14.3 µM. Further, the TGI with TK-10 renal came to 3.21 µM; in the assay on HCC-2998 colon, 36.2 µM; in the assay on LOX IMVI melanoma it was 10.6 µM; in the assay with M14 melanoma it was 19 µM; with HCT-15 colon it was 11.2 µM; in the assay with BT-549 breast, 28.9 µM. Also, the values for the TGI in the assay on NCI-H23 lung, with MALME-3M melanoma and in the assay with SK-MEL-5 melanoma were 37.7 µM, 3.61 µM and 28 µM, respectively.

With `CC(C(=O)N1C(=O)N(C(=O)C(C)C(O)c2ccccc2)C(c2ccccc2)C1c1ccccc1)C(O)c1ccccc1` (stereo not drawn), the TGI in the assay with TK-10 renal was greater than 100 µM; in the assay with HCC-2998 colon, greater than 100 µM; in the assay on OVCAR-4 ovarian it was greater than 100 µM; with LOX IMVI melanoma, 24.2 µM; in the assay with M14 melanoma it was 33.4 µM; with HCT-15 colon it was greater than 100 µM. Also, the values for the TGI with BT-549 breast, in the assay with NCI-H23 lung and in the assay with MALME-3M melanoma were 38.8 µM, greater than 100 µM and 32.3 µM, respectively.
